According to paper PMC12196476, “New Nitrogen-, Oxygen-, and Sulfur-Containing Heterocyclic Compounds as Anti-Colon Cancer Agents: Synthesis, Multitargeted Evaluations, Molecular Docking Simulations and ADMET Predictions” (Pharmaceuticals, 2025):

Assays:
[1] = DPPH radical scavenging assay; conditions: three independent experiments; read-out: Mean IC50 (mM) for initial DPPH radicals ± SD
Experimental: The antioxidant activities of the studied compounds were assessed using the 1,1-diphenyl-2-picrylhydrazyl (DPPH) radical scavenging method as detailed by Bersuder et al.. The results were expressed as IC50 (mM)—the concentration of the test compound required to neutralize 50% of DPPH radicals.
The antioxidant efficiencies of target compounds were determined using the 1,1-diphenyl-2-picrylhydrazyl (DPPH) radical scavenging method as detailed by Bersuder et al.. […]
S3.2. Evaluation of Biological Activities.
S3.2.1. In vitro DPPH radical scavenging assay.
The antioxidant efficiencies of compounds—3a−e, 8, 9a−c, 13, 14, 17, 18a−h, 20, 22, 23, and 25—were
determined using the 1,1-diphenyl-2-picrylhydrazyl (DPPH) radical scavenging method as
detailed by Bersuder et al.. Fundamentally, the purple color of the stabilized DPPH radical
fades in the presence of an antioxidant, thus, the change of absorbance can be followed
spectrophotometrically at 519 nm. In the assay, equal volumes (0.5 mL) of DPPH ethanolic solution
and each compound (0-2 mg/mL in DMSO) or butylated hydroxytoluene (BHT) as the reference
were mixed well by shaking. The negative control consisted of the same amount of DMSO and
DPPH solution. After, incubation all mixtures at room temperature in the dark for one hour, the
absorbance of the residual DPPH radicals was measured at 519 nm using the UV‐vis
spectrophotometer. The DPPH radical scavenging activity of each compound (%) was calculated
Scavenging activity = (1 − Acompound/AControl) * 100, where Acompound and Acontrol the absorbance values
of each tested compound (or BHT) and the negative control, respectively. The half maximal
inhibitory concentration (IC50) for each compound in mg/mL was deduced by graphing the dose-
response curve relating the scavenging activity (%) to the compound concentration. Data points
represent the mean ± standard deviation (SD) of three independent determinations.

PDK-1 = PDK-1 (Homo sapiens, UniProt Q15118); experiment: In vitro PDK-1 inhibition assay (Kinase-Glo luminescent kinase kit); format: biochemical; conditions: 100 µg/mL, three replicates; for inhibition at 100 µg/mL: read-out: Mean Inhibition Percent ± SD, PDK-1
Experimental: Principally, the PDK-1 inhibitory activities were evaluated using the non-radioactive Kinase-Glo™ Luminescent Kinase Kit (Promega Corporation, Madison, WI, USA) following the instructions of the manufacturer.
S3.2.2. In vitro PDK-1 inhibition assay.
The PDK-1 inhibitory activities of the test compounds were evaluated using the non-radioactive
Kinase-Glo™ Luminescent Kinase kit (Promega Corporation, Madison, WI, USA), following the
manufacturer’s protocol. Briefly, 5 μL of assay buffer—containing 10 × 250 mM Tris-HCl, 50 mM
MgCl2, 5 mM ethyleneglycol-bis(β-aminoethylether)-N,N,N′,N′-tetraacetic acid (EGTA), 10 mM
ethylenedi- aminetetraacetic acid (EDTA), and 10 mM dithiothreitol (DTT)—was added to each
well of a 96-well plate, along with 25 μL of distilled water. Subsequently, 5 μL of each test
compound at various concentrations (50, 100, 200 and 300 μg/mL in 1% DMSO) was added to the
respective wells, except for the two control wells, which received 5 μL of either PBS buffer or 1%
DMSO. Then, 5 μL of pyruvate dehydrogenase E1 (PDH E1) protein (10 μM) and 5 μL of ATP
(10 μM) were added to each well. To initiate phosphorylation, 5 μL of PDK-1 (20 μM) in protein
buffer (1 mM MgCl2, 2000 mM KCl, 40 mM K3PO4) was added to all the wells except the control
wells, which received 5 μL of protein buffer instead. The plate was then mixed thoroughly and
incubated at 37 °C for 30 minutes. After incubation, 50 μL of kinase-Glo® reagent was added to each
well, followed by a 10-minute incubation at room temperature with gentle shaking to stabilize the
luminescent signal. Luminescence was then measured using a microplate reader.
The IC50 value—defined as the concentration of a compound required to reduce luminescence by
50%, compared to untreated control wells—was determined for each compound from the
corresponding dose–response curve generated by plotting PDK-1 inhibition (%) versus compound
concentration. Sodium dichloroacetate (SDA, 1000 μM) was used as a reference PDK-1inhibitor. […]

[2] = target: recombinant human LDHA protein (Homo sapiens, UniProt P00338); experiment: In vitro LDHA inhibitory assay (NADH consumption); format: biochemical; conditions: 100 µg/mL, three replicates; for inhibition at 100 µg/mL: read-out: Mean Inhibition Percent ± SD, LDHA
Text: The LDHA inhibitory efficiencies were investigated on Spectramax M2 spectrofluorometer via measuring the amounts of the consumed NADH^40 using an NAD^+/NADH quantification kit. […]
S3.2.3. In vitro LDHA inhibitory assay.
The LDHA inhibitory activity of the test compounds was investigated using Spectramax M2
spectrofluorometer by measuring the amounts of the consumed NADH [42] employing
NAD+/NADH quantification kit. Briefly, the assay medium containing various concentrations of
each test compound (50, 100, 200 and 300 μg/mL) was incubated in assay medium composed of 20
mM of HEPES-K+ buffer (pH 7.2), 20 μM of NADH, 2 mM of pyruvate and 10 ng of purified
recombinant human LDHA protein for 10 min utes. The activity of LDHA would result in reduction
of pyruvate into lactate with concomitant oxidation of NADH to NAD +. Since NADH (reduced
LDHA, could be inversely quantified by monitoring the change in the intensity of the fluorescence
at 340 nm over a 10-minute period. The rate of the fluorescence change (slope) in treated samples
was compared to that obtained from negative control experiment (100 % enzymatic activity) to
determine the percentage of inhibition. The IC50 value—defined as the compound concentration
required to reduce the luminescence by 50%, compared to untreated control wells—was
determined for each compound from the corresponding dose–response curve generated by
plotting LDHA inhibition (%) against compound concentration.
was used as the reference LDHA inhibitor. […]

[3] = test system: LoVo colon carcinoma cells; experiment: Cell viability, LDH release assay, LoVo; conditions: 48 h; for viability at 100 µg/mL / IC50: Homo sapiens, LoVo; for viability at 100 µg/mL: read-out: Mean % of viable cells ± SD, LoVo, 100 µg/mL, 48 h, LDH release assay; for IC50: read-out: Mean IC50 Values in µM ± SD, LoVo cells
Experimental: (§1) The studied compounds were also screened for their cytotoxic effects on HCT-116 and LoVo colon carcinoma cells, as well as normal HUVECs, using the standard LDH assay at a concentration of 100 µg/mL.
(§2) The antiproliferative activities of the newly synthesized compounds 3a–e, 8, 9a–c, 13, 14, 17, 18a–h, 20, 22, 23 and 25 were examined on human colon HCT-116 and LoVo cell lines as well as HUVEC (American Type Culture Collection, Manassas, VA, USA). […]
(§3) S3.2.4. Cell culture and viability assay.
(§4) The cytotoxic activities of the newly synthesized compounds (3a-e, 8, 9a-c, 13, 14, 17, 18a-h, 20, 22,
(§5) 23, and 25) were examined on human colon cancer cell lines HCT-116 and Lovo (American Type
(§6) Culture Collection, USA). Various concentrations (50, 100, 200, and 400 μg/mL) of test compounds
(§7) were prepared in Dulbecco’s Modified Eagles Medium (PAN-Biotech, Barcelona, Spain),

[4] = test system: HCT-116 colon carcinoma cells; experiment: Cell viability, LDH release assay, HCT-116; conditions: for viability at 100 µg/mL / IC50: Homo sapiens, HCT-116, 48 h; for viability at 100 µg/mL: read-out: Mean % of viable cells ± SD, HCT-116, 100 µg/mL, 48 h, LDH release assay; for IC50: read-out: Mean IC50 Values in µM ± SD, HCT-116 cells
Experimental: as §1, §2, §3, §4, §5, §6, §7

HUVECs = experiment: Cell viability, LDH release assay, normal HUVECs; conditions: 100 µg/mL, 48 h
Experimental: as §1, §2
(§8) medium served used as negative and positive controls, respectively. Percentages of viable cells […]
(§9) were calculated based on relative optical density (OD) values (at 550 nm) for compound-treated […]
(§10) wells (final concentration of 100 μg/mL), compared to the negative control, and expressed as mean value (%) ± SD from two replicates. Graphing dose-response curves representing the compound […]
(§11) concentration versus the percentages of viable cells was also conducted to deduce the half - […]
(§12) Additionally, the safety profiles of the studied compounds were assessed against normal cells […]
(§13) (HUVECs) at final concentration of 100 μg/mL . HUVECs were grown in Dulbecco’s Modified Eagle’s Medium supplemented with 10% FBS, 2 mM glutamine (Sigma Aldrich), 100 units/mL penicillin and […] streptomycin (Life Technologies; Paisley, UK). […]

[5] = Cell viability, LDH release assay, normal HUVECs; conditions: human, normal HUVECs, Mean % of viable cells ± SD, HUVEC
Experimental: as §1, §2, §8, §9, §10, §11, §12, §13

Chain of PDK-1 (Q15118 29-436): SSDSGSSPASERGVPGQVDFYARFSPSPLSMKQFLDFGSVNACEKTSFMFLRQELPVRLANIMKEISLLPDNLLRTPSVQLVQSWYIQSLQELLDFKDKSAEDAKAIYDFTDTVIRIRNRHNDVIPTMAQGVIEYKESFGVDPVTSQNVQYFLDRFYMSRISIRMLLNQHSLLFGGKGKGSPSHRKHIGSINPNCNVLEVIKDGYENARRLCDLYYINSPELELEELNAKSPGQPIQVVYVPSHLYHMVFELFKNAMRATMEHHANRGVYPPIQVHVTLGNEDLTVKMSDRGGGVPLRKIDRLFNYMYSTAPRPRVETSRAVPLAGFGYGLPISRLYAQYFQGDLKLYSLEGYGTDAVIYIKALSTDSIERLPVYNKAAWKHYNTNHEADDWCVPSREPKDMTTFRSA

| Compound | IC50 [1] [mM] | Mean Inhibition Percent ± SD, PDK-1 (PDK-1) [%] | Mean Inhibition Percent ± SD, LDHA [2] [%] | Mean % of viable cells ± SD, LoVo ([3]; 100 µg/mL, LDH release assay) [%] | Mean % of viable cells ± SD, HCT-116 ([4]; 100 µg/mL, 48 h, LDH release assay) [%] | Mean % of viable cells ± SD, HUVEC (HUVECs) [%] | inhibition at 100 µg/mL (PDK-1) [%] | inhibition at 100 µg/mL [2] [%] | viability at 100 µg/mL [3] [%] | IC50 [3] [µM] | viability at 100 µg/mL [4] [%] | IC50 [4] [µM] | viability at 48 h, 100 µg/mL [5] [%] |
| --- | --- | --- | --- | --- | --- | --- | --- | --- | --- | --- | --- | --- | --- |
| N-(3-(2-(1-(2-((2,4-Dimethylphenyl)amino)-2-oxoethyl)-2-oxoindolin-3-ylidene)hydrazinyl)-1-(4-hydroxy-3-methoxyphenyl)-3-oxoprop-1-en-2-yl)benzamide [Compound 25] | 0.162 ± 0.023 | 13.30±1.84 | 40.50 ± 3.54 | 71.50 ± 3.54 | 79.00 ± 2.83 | 87.94 ± 2.33 |  |  |  |  |  |  |  |
| CCOC(=O)c1sc(N2C(=O)CSCC2=O)nc1C [Compound 8, Ethyl 2-(3,5-Dioxothiomorpholino)-4-methylthiazole-5-carboxylate] | 1.52 ± 0.07 |  |  |  |  |  | 16.6 ± 2.19 | 23.2 ± 1.06 | 13.5 ± 0.71 | 320 ± 7.44 | 26.5 ± 2.12 | 410 ± 13.5 | 84.6 ± 2.54 |
| COc1cc(C=C(NC(=O)c2ccccc2)c2n[nH]c(=S)o2)ccc1O [Compound 22, N-(2-(4-Hydroxy-3-methoxyphenyl)-1-(5-thioxo-4,5-dihydro-1,3,4-oxa-diazol-2-yl)vinyl)benzamide] | 0.65 ± 0.076 |  |  |  |  |  | 39.5 ± 2.12 | 27.2 ± 2.48 | 29.5 ± 2.12 | 437.3 ± 1.51 | 40.5 ± 3.54 | 511 ± 5.61 | 79 ± 2 |
| COc1cc(/C=N/n2c(C)nc3cc(OC)c(OC)cc3c2=O)ccc1O [Compound 18d, (E)-3-((4-Hydroxy-3-methoxybenzylidene)amino)-6,7-dimethoxy-2-methylquinazoli-N-4(3H)-one] | 0.658 ± 0.016 |  |  |  |  |  | 65 ± 3.46 | 12.2 ± 1.98 | 30.7 ± 4.24 | 202 ± 7.82 | 38 ± 2 | 238 ± 8.12 | 86.3 ± 1.53 |
